Where a name gives a salt, the structure may show the parent alone. Read-outs that look alike come from different tables or passages of the source.
Key:
[1] = target: T1, human arginase I (ARG I) (Homo sapiens, UniProt P05089); experiment: Inhibition of arginase I, spectrophotometric urea assay at 530 nm; type: biochemical
T1 sequence (P05089 1-322): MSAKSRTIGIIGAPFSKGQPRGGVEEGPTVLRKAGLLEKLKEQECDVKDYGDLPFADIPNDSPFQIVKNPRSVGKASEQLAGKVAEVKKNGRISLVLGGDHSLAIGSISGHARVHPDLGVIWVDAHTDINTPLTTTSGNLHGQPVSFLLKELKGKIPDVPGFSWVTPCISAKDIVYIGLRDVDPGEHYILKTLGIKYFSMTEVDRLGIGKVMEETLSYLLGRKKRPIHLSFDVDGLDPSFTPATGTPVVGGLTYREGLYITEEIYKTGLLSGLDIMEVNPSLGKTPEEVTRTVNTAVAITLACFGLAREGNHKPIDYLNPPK
Procedure, shortened: (§1)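 IC50 was derived by regression of OD530 normalized to uninhibited-enzyme controls against log concentration. Urea from 60-min, 37 °C turnover of L-arginine with manganese sulfate was detected after acid o-phthaldialdehyde/primaquine quench and 10 min colour development. Arginase I and II came from 100 ng/ml stocks in pH 7.4 phosphate with ovalbumin.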

[2] = target: T2, arginase II (ARG II) (Homo sapiens, UniProt P78540); experiment: Inhibition of arginase II, spectrophotometric urea assay at 530 nm; type: biochemical
T2 sequence (P78540 23-354): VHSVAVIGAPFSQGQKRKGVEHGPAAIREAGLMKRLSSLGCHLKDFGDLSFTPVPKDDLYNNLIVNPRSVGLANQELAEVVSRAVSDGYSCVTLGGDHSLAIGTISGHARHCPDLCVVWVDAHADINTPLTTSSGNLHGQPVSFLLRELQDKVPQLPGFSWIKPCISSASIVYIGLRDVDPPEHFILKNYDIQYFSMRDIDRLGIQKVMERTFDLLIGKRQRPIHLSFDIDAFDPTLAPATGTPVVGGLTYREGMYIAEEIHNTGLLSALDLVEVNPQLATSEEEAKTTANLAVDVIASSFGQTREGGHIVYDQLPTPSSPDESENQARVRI
Procedure, shortened: as §1

[3] = Formula I compounds, Table 2, read-out: Potency (ARG I)
[4] = Formula I compounds, Table 2, read-out: Potency (ARG II)

Row | SMILES | IC50 [1, 3] [nM] | IC50 [2, 4] [nM] | IC50 [1] [nM] | IC50 [2] [nM]
1 | NC(CCCCB(O)O)(CCN1CCC(F)(F)C1)C(=O)O (centres unmarked) [compound 44, 2-amino-6-borono-2-(2-(3,3-difluoropyrrolidin-1-yl)ethyl)hexanoic acid dihydrochloride] | > 5000 | > 5000 |  | 
2 | CC(=O)C1(c2ccccc2)CCN(CCC(N)(CCCCB(O)O)C(=O)O)CC1 (centres unmarked) [compound 45, 2-(2-(4-acetyl-4-phenylpiperidin-1-yl)ethyl)-2-amino-6-boronohexanoic acid dihydrochloride] |  |  | 1000 to 2000 | 2000 to 5000
3 | NC(CCCCB(O)O)(CCN1CCC[C@@H]1C(F)(F)F)C(=O)O (stereo partly drawn) [compound 46, 2-amino-6-borono-2-(2-((R)-2-(trifluoromethyl)pyrrolidin-1-yl)ethyl)hexanoic acid dihydrochloride] | > 5000 | > 5000 |  | 
4 | NC(CCCCB(O)O)(CCN1CCC(F)CC1)C(=O)O (centres unmarked) [compound 47, 2-amino-6-borono-2-(2-(4-fluoropiperidin-1-yl)ethyl)hexanoic acid dihydrochloride] | 1000 to 2000 | 2000 to 5000 |  | 
5 | CN(CCC(N)(CCCCB(O)O)C(=O)O)Cc1ccc(F)c(C(F)(F)F)c1 (centres unmarked) [compound 48, 2-amino-6-borono-2-(2-((4-fluoro-3-(trifluoromethyl)benzyl)(methyl)amino)ethyl)hexanoic acid dihydrochloride] | 2000 to 5000 | > 5000 |  | 
6 | CN1CCCN(CCC(N)(CCCCB(O)O)C(=O)O)CC1 (centres unmarked) [compound 49, 2-amino-6-borono-2-(2-(4-methyl-1,4-diazepan-1-yl)ethyl)hexanoic acid dihydrochloride] | 2000 to 5000 | 2000 to 5000 |  | 
7 | COc1ccccc1N1CCN(CCC(N)(CCCCB(O)O)C(=O)O)CC1 (centres unmarked) [compound 50, 2-amino-6-borono-2-(2-(4-(2-methoxyphenyl)piperazin-1-yl)ethyl)hexanoic acid dihydrochloride] | > 5000 | > 5000 |  | 
8 | NCCN(CCN)CCC(N)(CCCCB(O)O)C(=O)O (centres unmarked) [compound 51, 2-amino-2-(2-(bis(2-aminoethyl)amino)ethyl)-6-boronohexanoic acid tetrahydrochloride] | 1000 to 2000 | 2000 to 5000 |  | 
9 | NC(CCCCB(O)O)(CCN1CCCCC1C(=O)O)C(=O)O (centres unmarked) [compound 52, 1-(3-amino-7-borono-3-carboxyheptyl)piperidine-2-carboxylic acid dihydrochloride] | 2000 to 5000 | 2000 to 5000 |  | 
10 | NC(CCCCB(O)O)(CCN1CCC[C@@H](C(=O)O)C1)C(=O)O (stereo partly drawn) [compound 53, (3R)-1-(3-amino-7-borono-3-carboxyheptyl)piperidine-3-carboxylic acid] | 2000 to 5000 | 2000 to 5000 |  | 
11 | CN(C)C(=O)[C@@H]1CCCN1CCC(N)(CCCCB(O)O)C(=O)O (stereo partly drawn) [compound 54, 2-amino-6-borono-2-(2-((S)-2-(dimethylcarbamoyl)pyrrolidin-1-yl)ethyl)hexanoic acid dihydrochloride] | > 5000 | > 5000 |  | 
12 | CC(C)NCCC(N)(CCCCB(O)O)C(=O)O (centres unmarked) [compound 55, 2-amino-6-borono-2-(2-(isopropylamino)ethyl)hexanoic acid dihydrochloride] | 0.1 to 250 | 251 to 1000 |  | 
13 | NC(CCCCB(O)O)(CCN1CCC[C@H](C(=O)O)C1)C(=O)O (stereo partly drawn) [compound 56, (3S)-1-(3-amino-7-borono-3-carboxyheptyl)piperidine-3-carboxylic acid dihydrochloride] | 1000 to 2000 | 2000 to 5000 |  | 
14 | CC1(C(=O)O)CCN(CCC(N)(CCCCB(O)O)C(=O)O)CC1 (centres unmarked) [compound 57, 1-(3-amino-7-borono-3-carboxyheptyl)-4-methylpiperidine-4-carboxylic acid] | 1000 to 2000 | 1000 to 2000 |  | 
15 | NC(CCCCB(O)O)(CCNC1Cc2ccccc2C1)C(=O)O (centres unmarked) [compound 58, 2-amino-6-borono-2-(2-(2,3-dihydro-1H-inden-2-ylamino)ethyl)hexanoic acid dihydrochloride] | 0.1 to 250 | 0.1 to 250 |  | 
16 | NC(CCCCB(O)O)(CCN1CC(O)C1)C(=O)O (centres unmarked) [compound 59, 2-amino-6-borono-2-(2-(3-hydroxyazetidin-1-yl)ethyl)hexanoic acid dihydrochloride] | 1000 to 2000 | 2000 to 5000 |  | 
17 | CCCCC1(NCCC(N)(CCCCB(O)O)C(=O)O)CC1 (centres unmarked) [compound 60, 2-amino-6-borono-2-(2-(1-butylcyclopropylamino)ethyl)hexanoic acid dihydrochloride] | 0.1 to 250 | 251 to 1000 |  | 

Row | SMILES | IC50 [1, 3] [nM] | IC50 [2, 4] [nM] | IC50 [1] [nM] | IC50 [2] [nM]
18 | COc1ccc(CC2(NCCC(N)(CCCCB(O)O)C(=O)O)CC2)cc1 (centres unmarked) [compound 61, 2-amino-6-borono-2-(2-(1-(4-methoxybenzyl)cyclopropylamino)ethyl)hexanoic acid] | 251 to 1000 | 1000 to 2000 |  | 
19 | NC(CCCCB(O)O)(CCN1CCc2ccsc2C1)C(=O)O (centres unmarked) [compound 62, 2-amino-6-borono-2-(2-(4,5-dihydrothieno[2,3-c]pyridin-6(7H)-yl)ethyl)hexanoic acid dihydrochloride] | 251 to 1000 | 1000 to 2000 |  | 
20 | NC(CCCCB(O)O)(CCNCCCc1ccc(F)c(F)c1)C(=O)O (centres unmarked) [compound 63, 2-amino-6-borono-2-(2-(3-(3,4-difluorophenyl)propylamino)ethyl)hexanoic acid dihydrochloride] | 0.1 to 250 | 0.1 to 250 |  | 
21 | NC(CCCCB(O)O)(CCNCCCc1cc(C(F)(F)F)ccc1Cl)C(=O)O (centres unmarked) [compound 64, 2-amino-6-borono-2-(2-(3-(2-chloro-5-(trifluoromethyl)phenyl)propylamino)ethyl)hexanoic acid dihydrochloride] | 0.1 to 250 | 0.1 to 250 |  | 
22 | COc1cccc(CCCNCCC(N)(CCCCB(O)O)C(=O)O)c1 (centres unmarked) [compound 65, 2-amino-6-borono-2-(2-(3-(3-methoxyphenyl)propylamino)ethyl)hexanoic acid dihydrochloride] | 0.1 to 250 | 0.1 to 250 |  | 
23 | NC(CCCCB(O)O)(CCNCCCc1ccc(Cl)cc1Cl)C(=O)O (centres unmarked) [compound 66, 2-amino-6-borono-2-(2-(3-(2,4-dichlorophenyl)propylamino)ethyl)hexanoic acid dihydrochloride] | 0.1 to 250 | 0.1 to 250 |  | 
24 | CC(C)(C)NCCC(N)(CCCCB(O)O)C(=O)O (centres unmarked) [compound 67, 2-amino-6-borono-2-(2-(tert-butylamino)ethyl)hexanoic acid dihydrochloride] | 251 to 1000 | 251 to 1000 |  | 
25 | NC(CCCCB(O)O)(CCNC1CC1)C(=O)O (centres unmarked) [compound 68, 2-amino-6-borono-2-(2-(cyclopropylamino)ethyl)hexanoic acid dihydrochloride] | 251 to 1000 | 251 to 1000 |  | 
26 | COc1ccc(CNCCC(N)(CCCCB(O)O)C(=O)O)cc1 (centres unmarked) [compound 69, 2-amino-6-borono-2-(2-(4-methoxybenzylamino)ethyl)hexanoic acid dihydrochloride] | 0.1 to 250 | 0.1 to 250 |  | 
27 | NC(CCCCB(O)O)(CCNCc1ccccc1)C(=O)O (centres unmarked) [compound 70, 2-amino-2-(2-(benzylamino)ethyl)-6-boronohexanoic acid dihydrochloride] | 0.1 to 250 | 251 to 1000 |  | 
28 | CN(C)CCN(C)CCC(N)(CCCCB(O)O)C(=O)O (centres unmarked) [compound 71, 2-amino-6-borono-2-(2-((2-(dimethylamino)ethyl)(methyl)amino)ethyl)hexanoic acid trihydrochloride] | 2000 to 5000 | 2000 to 5000 |  | 
29 | NC(CCCCB(O)O)(CCNC1CCCC1)C(=O)O (centres unmarked) [compound 72, 2-amino-6-borono-2-(2-(cyclopentylamino)ethyl)hexanoic acid dihydrochloride] | 251 to 1000 | 251 to 1000 |  | 
30 | NCCN(CCC(N)(CCCCB(O)O)C(=O)O)Cc1ccccc1 (centres unmarked) [compound 73, 2-amino-2-(2-((2-aminoethyl)(benzyl)amino)ethyl)-6-boronohexanoic acid trihydrochloride] | 0.1 to 250 | 251 to 1000 |  | 
31 | CC(C)Oc1ccc(CN(C)CCC(N)(CCCCB(O)O)C(=O)O)cc1 (centres unmarked) [compound 74, 2-amino-6-borono-2-(2-((4-isopropoxybenzyl)(methyl)amino)ethyl)hexanoic acid dihydrochloride] | 2000 to 5000 | > 5000 |  | 
32 | NC(CCCCB(O)O)(CCN1CCC1)C(=O)O (centres unmarked) [compound 75, 2-amino-2-(2-(azetidin-1-yl)ethyl)-6-boronohexanoic acid dihydrochloride] | 251 to 1000 | 1000 to 2000 |  | 
33 | NC(CCCCB(O)O)(CCN1CCN(c2ccccc2)CC1)C(=O)O (centres unmarked) [compound 76, 2-amino-6-borono-2-(2-(4-phenylpiperazin-1-yl)ethyl)hexanoic acid dihydrochloride] | > 5000 | > 5000 |  | 
34 | COCCN1CCN(CCC(N)(CCCCB(O)O)C(=O)O)CC1 (centres unmarked) [compound 77, 2-amino-6-borono-2-(2-(4-(2-methoxyethyl)piperazin-1-yl)ethyl)hexanoic acid trihydrochloride] | 2000 to 5000 | > 5000 |  | 

— patent US9994594B2, “Inhibitors of arginase and their therapeutic applications” (MARS, INCORPORATED, priority 2010, dated 2018)
